Measured values as given in US9434711B2 (Janssen Pharmaceutica, NV, priority 2007, dated 2016).

Molecular target: canine TRPM8 (Canis lupus familiaris, UniProt Q1A7N1)
Test: In Vitro Canine TRPM8 Functional Assay (Ca2+ fluorescence, icilin activation)
Format: cell-based
Conditions: for IC50: HEK293 cells stably expressing canine TRPM8, icilin activation, eight-point dose-response, read-out: IC50; for inhibition at 0.2 µM / % Inh @ 0.2 (μM): compound at 0.2 μM, canine TRPM8, icilin activation; for inhibition at 0.2 µM: read-out: % Inh @ 0.2
Method in brief: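 Eight-point dose-response curves in quadruplicate gave EC50 or IC50 values from a Ca2+-sensitive dye assay in HEK293 cells stably carrying canine TRPM8. Icilin, dosed near its 80% maximal level, followed a 5 min compound exposure.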

Sequence of canine TRPM8 (Q1A7N1 1-1104): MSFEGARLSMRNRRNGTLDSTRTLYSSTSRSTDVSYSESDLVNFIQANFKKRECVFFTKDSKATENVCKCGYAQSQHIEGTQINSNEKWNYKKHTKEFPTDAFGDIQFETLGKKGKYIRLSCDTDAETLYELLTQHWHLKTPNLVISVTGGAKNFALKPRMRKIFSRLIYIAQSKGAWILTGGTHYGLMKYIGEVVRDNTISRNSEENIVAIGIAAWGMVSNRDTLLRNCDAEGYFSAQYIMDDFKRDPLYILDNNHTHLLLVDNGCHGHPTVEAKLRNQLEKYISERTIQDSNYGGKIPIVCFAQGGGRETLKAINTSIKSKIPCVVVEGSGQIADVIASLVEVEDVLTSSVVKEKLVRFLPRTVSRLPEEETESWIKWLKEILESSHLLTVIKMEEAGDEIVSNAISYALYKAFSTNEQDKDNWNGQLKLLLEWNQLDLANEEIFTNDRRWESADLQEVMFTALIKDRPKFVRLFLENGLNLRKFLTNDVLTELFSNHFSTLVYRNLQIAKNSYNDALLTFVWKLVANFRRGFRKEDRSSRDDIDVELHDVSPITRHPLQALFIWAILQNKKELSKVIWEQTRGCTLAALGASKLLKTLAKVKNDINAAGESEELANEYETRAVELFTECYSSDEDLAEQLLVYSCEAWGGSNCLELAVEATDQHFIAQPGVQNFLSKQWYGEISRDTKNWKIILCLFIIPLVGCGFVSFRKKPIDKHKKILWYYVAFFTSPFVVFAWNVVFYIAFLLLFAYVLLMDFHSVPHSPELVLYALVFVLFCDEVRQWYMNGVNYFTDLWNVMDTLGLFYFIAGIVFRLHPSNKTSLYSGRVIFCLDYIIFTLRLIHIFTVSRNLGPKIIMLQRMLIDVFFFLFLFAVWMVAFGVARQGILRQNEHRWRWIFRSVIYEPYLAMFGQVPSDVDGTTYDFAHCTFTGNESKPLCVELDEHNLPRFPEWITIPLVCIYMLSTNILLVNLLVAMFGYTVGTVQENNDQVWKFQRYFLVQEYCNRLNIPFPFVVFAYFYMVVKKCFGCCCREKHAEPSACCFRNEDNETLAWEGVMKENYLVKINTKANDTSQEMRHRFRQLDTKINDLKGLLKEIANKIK

Structure (SMILES) | IC50 [nM] | inhibition at 0.2 µM [%] | % Inh @ 0.2 (μM) [%]
O=S(=O)(c1cccnc1)N(Cc1cc(Cl)ccc1F)c1sc2ccccc2c1Br [Compound 324, N-(3-Bromo-benzo[b]thiophen-2-yl)-N-(2-fluoro-5-chloro-benzyl)-pyridin-3-ylsulfonamide] | 15 | 100 | –
O=S(=O)(c1ccccc1)N(Cc1ccc(OC(F)(F)F)cc1)c1sc2ccccc2c1C(F)(F)F [Compound 325, N-(3-Trifluoromethyl-benzo[b]thiophen-2-yl)-N-(4-trifluoromethoxy-benzyl)-benzenesulfonamide] | 5 | 102 | –
Cc1c(N(Cc2ccc(F)c(C(F)(F)F)c2)S(=O)(=O)c2ccc(-c3cc(C(F)(F)F)nn3C)s2)sc2ccccc12 [Compound 326, N-(3-Methyl-benzo[b]thiophen-2-yl)-N-(4-fluoro-3-trifluoromethyl-benzyl)-5-(2-methyl-5-trifluoromethyl-2H-pyrazol-3-yl)-thien-2-ylsulfonamide] | – | 14 | –
COC(=O)c1ccc(S(=O)(=O)N(Cc2ccc(F)c(C(F)(F)F)c2)c2sc3ccccc3c2C)o1 [Compound 327, N-(3-Methyl-benzo[b]thiophen-2-yl)-N-(4-fluoro-3-trifluoromethyl-benzyl)-5-carbomethoxy-furan-2-yl-sulfonamide] | 37 | 97 | –
Cc1c(N(Cc2ccc(F)c(C(F)(F)F)c2)S(=O)(=O)c2cn(C)nc2C(F)(F)F)sc2ccccc12 [Compound 328, N-(3-Methyl-benzo[b]thiophen-2-yl)-N-(4-fluoro-3-trifluoromethyl-benzyl)-1-methyl-3-trifluoromethyl-1H-pyrazol-4-ylsulfonamide] | 35 | 94 | –
Cc1c(N(Cc2ccc(F)c(C(F)(F)F)c2)S(=O)(=O)c2ccc(-c3cc(C(F)(F)F)on3)s2)sc2ccccc12 [Compound 329, N-(3-Methyl-benzo[b]thiophen-2-yl)-N-(4-fluoro-3-trifluoromethyl-benzyl)-5-(5-trifluoromethyl-isoxazol-3-yl)-thien-2-ylsulfonamide] | – | 17 | –
Cc1c(N(Cc2ccc(F)c(C(F)(F)F)c2)S(=O)(=O)c2cnc(Cl)c(Br)c2)sc2ccccc12 [Compound 330, N-(3-Methyl-benzo[b]thiophen-2-yl)-N-(4-fluoro-3-trifluoromethyl-benzyl)-5-bromo-6-chloro-pyridin-3-ylsulfonamide] | 88 | 80 | –
Cc1c(N(Cc2ccc(F)c(C(F)(F)F)c2)S(=O)(=O)c2cnc(Cl)c(Cl)c2)sc2ccccc12 [Compound 331, N-(3-Methyl-benzo[b]thiophen-2-yl)-N-(4-fluoro-3-trifluoromethyl-benzyl)-5,6-dichloro-pyridin-3-ylsulfonamide] | 90 | 71 | –
Cc1nnc(-c2cccc(S(=O)(=O)N(Cc3ccc(F)c(C(F)(F)F)c3)c3sc4ccccc4c3C)c2)o1 [Compound 333, N-(3-Methyl-benzo[b]thiophen-2-yl)-N-(4-fluoro-3-trifluoromethyl-benzyl)-3-(5-methyl-[1,3,4]oxadiazol-2-yl)-benzenesulfonamide] | 9 | 101 | –
Cc1c(N(Cc2ccc(F)c(C(F)(F)F)c2)S(=O)(=O)c2ccc(-c3cnco3)cc2)sc2ccccc12 [Compound 334] | 6 | 98 | –
CC(O)c1c(N(Cc2ccc(F)c(C(F)(F)F)c2)S(=O)(=O)c2ccc(C(=O)O)cc2)sc2ccccc12 (stereo not shown) [Compound 335, N-(4-Fluoro-3-trifluoromethyl-benzyl)-N-[3-(1-hydroxy-ethyl)-benzo[b]thiophen-2-yl]-4-carboxybenzenesulfonamide] | 1 | 101 | –
CC(=O)Nc1ccc(S(=O)(=O)N(Cc2ccc(F)c(C(F)(F)F)c2)c2sc3ccccc3c2C)cc1Cl [Compound 336, N-(3-Methyl-benzo[b]thiophen-2-yl)-N-(4-fluoro-3-trifluoromethyl-benzyl)-(3-chloro-4-acetamide)-benzenesulfonamide] | 15 | – | 101
Cc1c(N(Cc2ccc(F)c(C(F)(F)F)c2)S(=O)(=O)c2c(Cl)nc3sccn23)sc2ccccc12 [Compound 337] | 19 | – | 101
O=S(=O)(c1cnccc1Cl)N(Cc1ccc(F)c(C(F)(F)F)c1)c1sc2ccccc2c1Cl [Compound 338, N-(3-Chloro-benzo[b]thiophen-2-yl)-N-(4-fluoro-3-trifluoromethyl-benzyl)-4-chloro-pyridin-3-ylsulfonamide] | 29 | – | –
O=S(=O)(c1ccc(Cl)nc1)N(Cc1ccc(F)c(C(F)(F)F)c1)c1sc2ccccc2c1Cl [Compound 338] | – | 95 | –
CCCCN(c1sc2ccccc2c1C(C)=O)S(=O)(=O)c1ccc(C(=O)OC)cc1 [Compound 339, N-(3-Acetyl-benzo[b]thiophen-2-yl)-N-(butyl)-4-carbomethoxy-benzenesulfonamide] | 26.2 | 94 | –
CCCCN(c1cc2ccccc2s1)S(=O)(=O)c1cccnc1 [Compound 340, N-(Benzo[b]thiophen-2-yl)-N-(butyl)-pyridin-3-yl-sulfonamide] | – | 52 | –

Structure (SMILES) | IC50 [nM] | inhibition at 0.2 µM [%] | % Inh @ 0.2 (μM) [%]
CCCCN(c1sc2ccccc2c1C(C)(C)O)S(=O)(=O)c1ccc(C(C)(C)O)cc1 [Compound 341, N-(Butyl)-N-(3-(1-hydroxy-1-methyl-ethyl)-benzo[b]thiophen-2-yl)-4-(2-1-hydroxy-1-methyl-ethyl)-benzenesulfonamide] | 14 | – | 96
CCCCN(c1sc2ccccc2c1C(C)=O)S(=O)(=O)c1ccc(C(=O)O)cc1 [Compound 342, N-(3-Acetyl-benzo[b]thiophen-2-yl)-N-(butyl)-4-carboxy-benzenesulfonamide] | 13 | 100 | –
CCCCN(c1sc2ccccc2c1C(C)(C)O)S(=O)(=O)c1ccc(C(=O)O)cc1 [Compound 343, N-(Butyl)-N-(3-(1-hydroxy-1-methyl-ethyl)-benzo[b]thiophen-2-yl)-4-carboxy-benzenesulfonamide] | 19 | 98 | –
CCCCN(c1sc2ccccc2c1C(C)(C)O)S(=O)(=O)c1ccc(C(C)=O)cc1 [Compound 344, N-(Butyl)-N-(3-(1-hydroxy-1-methyl-ethyl)-benzo[b]thiophen-2-yl)-4-acetyl-benzenesulfonamide] | 12.7 | 99 | –
CCCCN(c1sc2ccccc2c1Br)S(=O)(=O)c1cccnc1 [Compound 345, N-(3-Bromobenzo[b]thiophen-2-yl)-N-(butyl)-pyridin-3-yl-sulfonamide] | 26.5 | 99 | –
CCS(=O)(=O)N(Cc1ccc(F)c(C(F)(F)F)c1)c1sc2ccccc2c1CN(C)C [Compound 346, N-(3-Dimethylaminomethyl-benzo[b]thiophen-2-yl)-N-(4-fluoro-3-trifluoromethyl-benzyl)-ethanesulfonamide] | 43.8 | 95 | –
CCS(=O)(=O)N(Cc1ccc(F)c(C(F)(F)F)c1)c1sc2ccccc2c1CNC [Compound 347, N-(4-Fluoro-3-trifluoromethyl-benzyl)-N-(3-methylaminomethyl-benzo[b]thiophen-2-yl)-ethanesulfonamide] | 57.1 | 95 | –
CCCNCc1c(N(Cc2ccc(F)c(C(F)(F)F)c2)S(=O)(=O)CC)sc2ccccc12 [Compound 348, N-(4-Fluoro-3-trifluoromethyl-benzyl)-N-(3-propylaminomethyl-benzo[b]thiophen-2-yl)-ethanesulfonamide] | – | 60 | –
CCS(=O)(=O)N(Cc1ccc(F)c(C(F)(F)F)c1)c1sc2ccccc2c1CN1CCCC1 [Compound 349, N-(4-Fluoro-3-trifluoromethyl-benzyl)-N-(3-pyrrolidin-1-yl-methyl-benzo[b]thiophen-2-yl)-ethanesulfonamide] | – | – | 42
CS(=O)(=O)CS(=O)(=O)N(Cc1ccc(F)c(C(F)(F)F)c1)c1sc2ccccc2c1Br [Compound 350, N-(3-Bromo-benzo[b]thiophen-2-yl)-N-(4-fluoro-3-trifluoromethyl-benzyl)-C-methanesulfonyl-methanesulfonamide] | – | 48 | –
CC(=O)c1ccc(S(=O)(=O)N(CCCC(F)(F)F)c2sc3ccccc3c2C)cc1 [Compound 351, N-(3-Methyl-benzo[b]thiophen-2-yl)-N-(4,4,4-trifluoro-butyl)-4-acetyl-benzenesulfonamide] | 21.2 | 97 | –
CC(=O)c1ccc(S(=O)(=O)N(Cc2ccc(F)c(C(F)(F)F)c2)c2sc3ccccc3c2C)cc1 [Compound 352, N-(3-Methyl-benzo[b]thiophen-2-yl)-N-(4-fluoro-3-trifluoromethyl-benzyl)-4-acetyl-benzenesulfonamide] | 8.6 | 96 | –
Cc1nccc(-c2cccc(S(=O)(=O)N(Cc3ccc(F)c(C(F)(F)F)c3)c3sc4ccccc4c3C)c2)n1 [Compound 353, N-(3-Methyl-benzo[b]thiophen-2-yl)-N-(4-fluoro-3-trifluoromethyl-benzyl)-3-(2-methyl-pyrimidin-4-yl)-benzenesulfonamide] | 9.4 | 98 | –
Cc1nccc(-c2cccc(S(=O)(=O)N(CCCC(F)(F)F)c3sc4ccccc4c3C)c2)n1 [Compound 354, N-(3-Methyl-benzo[b]thiophen-2-yl)-N-(4,4,4-trifluoro-butyl)-3-(2-methyl-pyrimidin-4-yl)-benzenesulfonamide] | 106 | 87 | –
COc1ccc(S(=O)(=O)N(Cc2ccc(F)c(C(F)(F)F)c2)c2sc3ccccc3c2C)c2cccnc12 [Compound 355] | 29.6 | – | 92
COc1ccc(S(=O)(=O)N(CCCC(F)(F)F)c2sc3ccccc3c2C)c2cccnc12 [Compound 356, N-(3-Methyl-benzo[b]thiophen-2-yl)-N-(4,4,4-trifluoro-butyl)-8-methoxyquinolin-5-ylsulfonamide] | 41.6 | 93 | –
